Data: patent publication US20240409585A1, “MACROCYCLIC IMMUNOMODULATORS” (priority 2021, published 2024)
Numbered stars: 1 amine (or outer) side, 2 acyl side, 3 side chain; on linkers, the order of the positions; unused ones are H or OH. Bridge positions count the residues as written; N and C are the ends. Square brackets hold non-standard residues; d marks the D form. Peptide text beside a SMILES is read from it. ξ: configuration not given here. Gly(1-amidinopiperidin-4-yl) = N=C(N)N1CCC([C@H](N)C(=O)O)CC1; X16 = O=C([C@H](Cc1ccc2cnccc2c1)N[*:1])[*:2]; X23 = O=C([C@H](Cc1cc2ccccc2cn1)N[*:1])[*:2]; X27 = O=C([C@H](Cc1ccc2ncccc2c1)N[*:1])[*:2]; Bip = N[C@@H](Cc1ccc(-c2ccccc2)cc1)C(=O)O; Cit = NC(=O)NCCC[C@H](N)C(=O)O; Thr(3ξ) = CC(O)[C@H](N)C(=O)O; Dap(Me) = CNC[C@H](N)C(=O)O; NMeA = CN[C@@H](C)C(=O)O; Dab = NCC[C@H](N)C(=O)O

target: T1, PE-labeled human PD-L1-Ig binding to Jurkat cell line over-expressing human PD-1 (Jurkat-PD-1) (Homo sapiens, UniProt Q15116); test: Jurkat-PD-1 Cell Binding High-Content Screening Assay (CBA): Method 1; settings: Jurkat-hPD-1 cells, PE-labeled PD-L1-Ig 20 nM final; read-out: Jurkat HPDL1 PD1 IC50 (uM) (Method 1)
T1 construct: expressed in transfected cells; host or cells: Jurkat
T1 sequence (Q15116 25-288): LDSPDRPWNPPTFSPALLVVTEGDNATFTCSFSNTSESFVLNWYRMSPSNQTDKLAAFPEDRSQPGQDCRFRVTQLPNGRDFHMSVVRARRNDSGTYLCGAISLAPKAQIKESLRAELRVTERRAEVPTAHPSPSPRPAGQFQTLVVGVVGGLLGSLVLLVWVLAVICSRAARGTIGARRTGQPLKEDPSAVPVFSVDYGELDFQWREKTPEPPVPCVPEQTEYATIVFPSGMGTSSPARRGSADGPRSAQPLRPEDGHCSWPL

IC50 [µM] | SMILES
0.03 | CC(C)C[C@@H]1NC(=O)[C@H](CCN)NC(=O)[C@@H](CC(C)C)NC(=O)[C@H](C)N(C)C(=O)[C@H](CCCNC(N)=O)NC(=O)[C@H](Cc2ccc(-c3ccccc3)cc2)NC(=O)[C@H](C(C)C)NC(=O)[C@H](Cc2c[nH]c3ccccc23)NC(=O)[C@H](CC(=O)O)NC(=O)[C@H](Cc2ccc(O)cc2)NC(=O)[C@H](Cc2ccccc2)NC(=O)CSC[C@@H](C(=O)N[C@@H](C)C(N)=O)NC(=O)[C@H](C(C)O)NC(=O)[C@H](C(C)C)NC1=O (stereo partly drawn) [Compound 2033] ({CH2CO}-FYDWV[Bip][Cit][NMeA][dL][Dab]LV[Thr(3ξ)]CA-NH2; thioether N-14)
0.06 | CNC[C@@H]1NC(=O)CSC[C@@H](C(=O)N[C@@H](C)C(N)=O)NC(=O)[C@H](C(C)O)NC(=O)[C@H](C(C)C)NC(=O)[C@H](CC(C)C)NC(=O)[C@H](CCN)NC(=O)[C@@H](CC(C)C)NC(=O)[C@H](C)N(C)C(=O)[C@H](CCCNC(N)=O)NC(=O)[C@H](Cc2ccc(-c3ccccc3)cc2)NC(=O)[C@H](C(C)C)NC(=O)[C@H](Cc2c[nH]c3ccccc23)NC(=O)[C@H](CC(=O)O)NC(=O)[C@H](Cc2ccc(O)cc2)NC1=O (stereo partly drawn) [Compound 2034] ({CH2CO}-[Dap(Me)]YDWV[Bip][Cit][NMeA][dL][Dab]LV[Thr(3ξ)]CA-NH2; thioether N-14)
0.04 | CC(C)C[C@@H]1NC(=O)[C@H](CCN)NC(=O)[C@@H](CC(C)C)NC(=O)[C@H](C)N(C)C(=O)[C@H](CCCNC(N)=O)NC(=O)[C@H](Cc2ccc(-c3ccccc3)cc2)NC(=O)[C@H](C(C)C)NC(=O)[C@H](Cc2c[nH]c3ccccc23)NC(=O)[C@H](CC(=O)O)NC(=O)[C@H](Cc2ccc(O)cc2)NC(=O)[C@H](Cc2cc3ccccc3cn2)NC(=O)CSC[C@@H](C(=O)N[C@@H](C)C(N)=O)NC(=O)[C@H](C(C)O)NC(=O)[C@H](C(C)C)NC1=O (stereo partly drawn) [Compound 2035] ({CH2CO}-[X23]YDWV[Bip][Cit][NMeA][dL][Dab]LV[Thr(3ξ)]CA-NH2; thioether N-14)
0.04 | CC(C)C[C@@H]1NC(=O)[C@H](CCN)NC(=O)[C@@H](CC(C)C)NC(=O)[C@H](C)N(C)C(=O)[C@H](CCCNC(N)=O)NC(=O)[C@H](Cc2ccc(-c3ccccc3)cc2)NC(=O)[C@H](C(C)C)NC(=O)[C@H](Cc2c[nH]c3ccccc23)NC(=O)[C@H](CC(=O)O)NC(=O)[C@H](Cc2ccc(O)cc2)NC(=O)[C@H](Cc2ccc3ncccc3c2)NC(=O)CSC[C@@H](C(=O)N[C@@H](C)C(N)=O)NC(=O)[C@H](C(C)O)NC(=O)[C@H](C(C)C)NC1=O (stereo partly drawn) [Compound 2036] ({CH2CO}-[X27]YDWV[Bip][Cit][NMeA][dL][Dab]LV[Thr(3ξ)]CA-NH2; thioether N-14)
0.02 | CC(C)C[C@@H]1NC(=O)[C@H](CCN)NC(=O)[C@@H](CC(C)C)NC(=O)[C@H](C)N(C)C(=O)[C@H](CCCNC(N)=O)NC(=O)[C@H](Cc2ccc(-c3ccccc3)cc2)NC(=O)[C@H](C(C)C)NC(=O)[C@H](Cc2c[nH]c3ccccc23)NC(=O)[C@H](CC(=O)O)NC(=O)[C@H](Cc2ccc(O)cc2)NC(=O)[C@H](Cc2ccc3cnccc3c2)NC(=O)CSC[C@@H](C(=O)N[C@@H](C)C(N)=O)NC(=O)[C@H](C(C)O)NC(=O)[C@H](C(C)C)NC1=O (stereo partly drawn) [Compound 2037] ({CH2CO}-[X16]YDWV[Bip][Cit][NMeA][dL][Dab]LV[Thr(3ξ)]CA-NH2; thioether N-14)
0.07 | CC(C)C[C@@H]1NC(=O)[C@H](CCN)NC(=O)[C@@H](CC(C)C)NC(=O)[C@H](C)N(C)C(=O)[C@H](CCCNC(N)=O)NC(=O)[C@H](Cc2ccc(-c3ccccc3)cc2)NC(=O)[C@H](C(C)C)NC(=O)[C@H](Cc2c[nH]c3ccccc23)NC(=O)[C@H](CC(=O)O)NC(=O)[C@H](Cc2ccc(O)cc2)NC(=O)[C@H](C2CCN(C(=N)N)CC2)NC(=O)CSC[C@@H](C(=O)N[C@@H](C)C(N)=O)NC(=O)[C@H](C(C)O)NC(=O)[C@H](C(C)C)NC1=O (stereo partly drawn) [Compound 2038] ({CH2CO}-[Gly(1-amidinopiperidin-4-yl)]YDWV[Bip][Cit][NMeA][dL][Dab]LV[Thr(3ξ)]CA-NH2; thioether N-14)
